In patent US12599662B2, “Methods and compositions for treating cancers” (INSERM (INSTITUT NATIONAL DE LA SANTÉ ET DE LA RECHERCHE …, priority 2018, dated 2026):

Experiments:
[1] = target: HDACs; conditions: cited from earlier work
[2] = tested on: LLC1; assay: MHC class I and II expression on LLC1 by flow cytometry; format: cell-based; conditions: for MHC class 2 expression: LLC1, dose corresponding to IC50; for increase of expression of MHC1 on the cell membrane: LLC1, dose corresponding to IC50, 48 hours, compared to untreated cells
Description: FIG. 3: HDACi up-regulates MHC1 in Lung cancer cell lines. […] MHCI and MHCII expression was quantified by flow cytometry analysis measuring the Relative Fluorescence Intensity (RFI).
(§1) Non-small cell lung cancer (NSCLC) cell line (lewis lung carcinoma, LLC) expressing a particularly aggressive metastatic phenotype was used.

[3] = tested on: LLC1; assay: MTT cell proliferation assay on LLC1; format: cell-based; conditions: Mus musculus
Method: as §1
The half maximal inhibitory concentration (IC50) was first determined for each HDACi using an MTT cell proliferation assay. LLC1 was treated with an increasing dose of HDCAi and proliferation was estimated measuring the absorbance after the incorporation by the cell of MMT (3-(4,5-dimethylthiazol-2-yl)-2,5-diphenyl tetrazolium bromide) substrate.

[4] = tested on: mammosphere-derived 4T1 cells; assay: MHC I expression on 4T1-derived mammospheres by flow cytometry; format: cell-based; conditions: 2 mM VPA
Method: (§2) FIG. 2: Valproic acid treatment increases MHC I expression in breast tumor cells. Variation in MHC I expression during VPA treatment at 2 mM on 4T1 adherent cells and on 4T1-derived mammospheres.
(§3) 4T1 cells are a triple negative breast cancer cell line that was incubated with increased doses (0.2 and 2 mM) of valproic acid (VPA). After 4 days of treatment, the MHC I surface marker was quantified by flow cytometry analysis.

[5] = tested on: 4T1 cells; assay: Vaccination study with irradiated hESC + adjuvants + VPA on 4T1 mice model; format: in vivo; conditions: for Percentage of tumor reduction (% of reduction): day 26, compared to control group receiving only PBS, irradiated hESC vaccine + named adjuvant, VPA 4 mg/ml in drinking water, 4T1 in mammary fat pad
Method: FIG. 1: Vaccination study with hESC combined with Valproic acid (VPA), Poly(A:U), ODN 2395 or Quil-A® adjuvant on 4T1 mice model. Vaccination study with hESC combined with Valproic acid (VPA), Poly(A:U), ODN 2395 or Quil-A® adjuvant on 4T1 mice model. Blab/c mice two boosts of vaccine containing 3 different adjuvants the day of tumor challenge. Tumor growth was assessed until 26 days to follow the tumor size using calipers permitting to measure both the longitudinal (a, mm) and transverse (b, mm) diameters. Tumor volume was calculated and plotted using calculation formula 1/6Π(a+b/2)3 mm3.
The experiment was carried out as followed: Five mice per group received two boosts of vaccine 7 and 14 days with 2×10^6 irradiated hESCs cells that were mixed with 3 different adjuvants: 500 μg of TLR3, 50 μg of TLR9 agonist or 50 μg/ml of Quil-A® Saponin vaccine adjuvant. After 14 days 5×10^4 4T1 cells were injected into the mammary fat pad of the mice and Valproic acid added in the drinking water at the dose of 4 mg/ml. Five mice receiving no treatment were used as control.
Adjuvants used in the vaccine product: Three different adjuvants were tested: • 1/ A TLR3-based adjuvant: Poly(A:U) (ref #tlrl-pau, InvivoGen) Polyadenylic-polyuridylic acid (poly(A:U)) is a synthetic double stranded RNA molecule that specifically signals through TLR3. Poly(A:U) is known to induce the activation of dendritic cells and T lymphocytes, to promote antigen-specific Th1-immune responses and to boost antibody production. […]

[6] = tested on: 4T1 cells; assay: Transcriptome analysis of VPA-treated 4T1 cells; format: cell-based; conditions: 0.5 mM VPA for 10 days versus non-VPA treated cells
Method: To determine the effect of VPA on 4T1 cells, a transcriptome analysis on cells treated with 0.5 mM of VPA for 10 days was performed and compared with that of non-VPA treated cells. These analyses allowed for the identification of the set of genes implicated in TNF-α signaling and in the response of IFN-α and IFN-γ. In addition, the use of the SAM algorithm allowed for the discrimination of 44 immune-related genes between the VPA-treated samples and their control counterparts, which were validated by principal component analysis (p-value=3.3×10^−4). […] These three molecules are known to contribute to the clonal expansion, survival, and development of T cells and regulate CD28 co-stimulation to promote Th1 cell responses. Consequently, this HDACi improves the immune response against the cancer cells.

[7] = tested on: 4T1 cells; assay: Surface marker expression on 4T1 cells by flow cytometry; format: cell-based
Method: as §2, §3

Molecule	MHC class 2 expression [2]	increase of expression of MHC1 on the cell membrane [2] [fold]	IC50 [3] [µM]	Percentage of tumor reduction (% of reduction) [5] [%]	further results
2-pyrrolidinone-n-butyric acid [PBA]	–	–	–	–	Ki ([1]; major carboxylic acid metabolite of levetiracetam in humans, read-out: Ki for HDAC inhibition): 2250 µM
Nc1ccccc1NC(=O)c1ccc(CNC(=O)OCc2cccnc2)cc1 [Entinostat]	not modulated	2	2 to 4	–	–
CC[C@@H](C(N)=O)N1CCCC1=O [Levetiracetam]	not modulated	2	2 to 4	–	direct effect on HDACs [1]: no direct effect on HDACs
CCCC(CCC)C(=O)O [VPA, acid-2-propylpentanoic]	not modulated	2	~2000	24	increase of MHC I expression (Relative Fluorescence Intensity) [4]: 2.7 fold; fold change of CD74, CCL2 and TNFRSF9 expression [6]: greater than 2; MHC I levels ([7]; 0.2 and 2 mM, 4 days of treatment): increasing MHC I levels in a dose-dependent manner; increase in PDL1 expression ([7]; 4T1 cells, 2 mM VPA): 2.1 fold; increase of MHC I expression (Relative Fluorescence Intensity) ([7]; 4T1 cells, 2 mM VPA): 2.1 fold; PDL2 expression ([7]; 4T1 cells, after VPA treatment): only weakly upregulated; MHC1 overexpression versus non-treated LLC1 cells ([2]; LLC1, FIG. 3A): 10 folds
O=C(CCCCCCC(=O)Nc1ccccc1)NO [Vorinostat, N-Hydroxy-N′-phenyloctanediamide]	not modulated	2	–	–	–
Polyadenylic-polyuridylic acid [Poly(A:U)]	–	–	–	54	reduction of breast tumor volume ([5]; hESC vaccine + adjuvant, versus TLR9 agonist or Quil-A, p<0.001): highest reduction of breast tumor volume
